Results published in ChEMBL document CHEMBL1201862, “PubChem BioAssay data set” (2004).
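Method: 48-hour compound exposure of cells in 96-well plates, five concentrations, linear interpolation of endpoints. GI50 = concentration required for 50% inhibition of growth.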 Calls of active or inactive are those of the source. Rule as the data show it: active = GI50 up to about 1.1 µM and inactive = higher.

Tests used:
Assay in all cases: NCI tumour cell line growth inhibition, 48 h
[1] = test system: IGROV-1
[2] = test system: CAKI-1
[3] = test system: SN12C
[4] = test system: SW-620
[5] = test system: U-251
[6] = test system: SF-268
[7] = test system: EKVX
[8] = test system: LOX IMVI
[9] = test system: HL-60
[10] = test system: K562
[11] = test system: OVCAR-3
[12] = test system: OVCAR-5
[13] = test system: MCF7
[14] = test system: OVCAR-8
[15] = test system: HCT-116
[16] = test system: A549
[17] = test system: Hs-578T
[18] = test system: BT-549
[19] = test system: RXF 393
[20] = test system: HOP-92
[21] = test system: 786-0
[22] = test system: SF-295
[23] = test system: Malme-3M
[24] = test system: SNB-19
[25] = test system: PC-3
[26] = test system: HCT-15
[27] = test system: KM12
[28] = test system: MDA-MB-231
[29] = test system: SK-MEL-28
[30] = test system: DU-145
[31] = test system: UACC-62
[32] = test system: NCI-H460
[33] = test system: SK-MEL-2
[34] = test system: NCI-H522
[35] = test system: UO-31
[36] = test system: SK-OV-3
[37] = test system: A498
[38] = test system: NCI-H23
[39] = test system: TK-10
[40] = test system: HCC 2998
[41] = test system: SNB-75
[42] = test system: RPMI-8226
[43] = test system: NCI/ADR-RES
[44] = test system: ACHN
[45] = test system: SK-MEL-5
[46] = test system: UACC-257
[47] = test system: HOP-62
[48] = test system: T47D
[49] = test system: MOLT-4
[50] = test system: MDA-MB-435
[51] = test system: NCI-H226
[52] = test system: M14
[53] = test system: HT-29
[54] = test system: COLO 205
[55] = test system: OVCAR-4
[56] = test system: MDA-N

With `CC(C)CCNc1ncnc2[nH]ncc12` the GI50 [1] was > 100 µM (inactive), the GI50 [2] was 98.6 µM (inactive) and the GI50 [3] was > 100 µM (inactive). The GI50 [4] was > 100 µM (inactive), the GI50 [5] was > 100 µM (inactive) and the GI50 [6] was > 100 µM (inactive). The GI50 [7] was 26.4 µM (inactive), the GI50 [8] was 91.2 µM (inactive) and the GI50 [9] was > 100 µM (inactive). The GI50 [10] was 81.8 µM (inactive), the GI50 [11] was > 100 µM (inactive) and the GI50 [12] was 49.4 µM (inactive). The GI50 [13] was 72.8 µM (inactive), the GI50 [14] was > 100 µM (inactive) and the GI50 [15] was > 100 µM (inactive). For the same compound, the GI50 [16] was > 100 µM (inactive), the GI50 [17] was 46.7 µM (inactive) and the GI50 [18] was > 100 µM (inactive). For the same compound, the GI50 [19] was > 100 µM (inactive), the GI50 [20] was 34.2 µM (inactive) and the GI50 [21] was > 100 µM (inactive). The GI50 [22] was 52.1 µM (inactive), the GI50 [23] was > 100 µM (inactive) and the GI50 [24] was > 100 µM (inactive). The GI50 [25] was > 100 µM (inactive), the GI50 [26] was > 100 µM and the GI50 [27] was 48.6 µM (inactive). The GI50 [28] was > 100 µM (inactive), the GI50 [29] was > 100 µM (inactive) and the GI50 [30] was > 100 µM (inactive). The GI50 [31] was > 100 µM (inactive), the GI50 [32] was > 100 µM (inactive) and the GI50 [33] was > 100 µM (inactive). For the same compound, the GI50 [34] was 59.4 µM (inactive), the GI50 [35] was > 100 µM (inactive) and the GI50 [36] was > 100 µM (inactive). The GI50 [37] was 45 µM (inactive), the GI50 [38] was > 100 µM (inactive) and the GI50 [39] was > 100 µM (inactive). For the same compound, the GI50 [40] was > 100 µM (inactive), the GI50 [41] was > 100 µM (inactive) and the GI50 [42] was 34 µM (inactive). For the same compound, the GI50 [43] was 77.4 µM (inactive), the GI50 [44] was 68.9 µM (inactive) and the GI50 [45] was 36.6 µM (inactive). For the same compound, the GI50 [46] was 32 µM (inactive), the GI50 [47] was 96.6 µM (inactive) and the GI50 [48] was 45.7 µM (inactive). For the same compound, the GI50 [49] was 65.6 µM (inactive), the GI50 [50] was 97.5 µM (inactive) and the GI50 [51] was 60.3 µM (inactive). For the same compound, the GI50 [52] was > 100 µM (inactive), the GI50 [53] was > 100 µM (inactive) and the GI50 [54] was 63.4 µM (inactive). The GI50 [55] was > 100 µM (inactive) and the GI50 [56] was 64.7 µM (inactive).
